ChEMBL document CHEMBL1201862, “PubChem BioAssay data set” (2004)
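Interpolation was linear, between the two tested concentrations surrounding the appropriate level; five concentrations were tested over 48 hours in 96-well plates. GI50 marks 50% less growth.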 The source made the active and inactive calls. Cut-off read from the data, not from the text of the source: active = GI50 up to about 1.1 µM and inactive = higher.

Assays:
Test in all cases: inhibition of tumour cell growth, NCI panel, 48 h
OVCAR-4 = test system: OVCAR-4
ACHN = test system: ACHN
MDA-N = test system: MDA-N
CCRF-CEM = test system: CCRF-CEM
SF-295 = test system: SF-295
U-251 = test system: U-251
Hs-578T = test system: Hs-578T
NCI/ADR-RES = test system: NCI/ADR-RES
DU-145 = test system: DU-145
SF-268 = test system: SF-268
Malme-3M = test system: Malme-3M
SNB-19 = test system: SNB-19
NCI-H226 = test system: NCI-H226
SK-MEL-28 = test system: SK-MEL-28
OVCAR-5 = test system: OVCAR-5
RXF 393 = test system: RXF 393
SW-620 = test system: SW-620
NCI-H522 = test system: NCI-H522
SR = test system: SR
CAKI-1 = test system: CAKI-1
HOP-62 = test system: HOP-62
MOLT-4 = test system: MOLT-4
A549 = test system: A549
LOX IMVI = test system: LOX IMVI
786-0 = test system: 786-0
SF-539 = test system: SF-539
HOP-92 = test system: HOP-92
HCT-15 = test system: HCT-15
HT-29 = test system: HT-29
TK-10 = test system: TK-10
SK-MEL-2 = test system: SK-MEL-2
EKVX = test system: EKVX
UACC-62 = test system: UACC-62
UACC-257 = test system: UACC-257
RPMI-8226 = test system: RPMI-8226
PC-3 = test system: PC-3
MDA-MB-231 = test system: MDA-MB-231
MDA-MB-435 = test system: MDA-MB-435
SN12C = test system: SN12C
OVCAR-3 = test system: OVCAR-3
KM12 = test system: KM12
NCI-H23 = test system: NCI-H23
K562 = test system: K562
BT-549 = test system: BT-549
SK-OV-3 = test system: SK-OV-3
HCT-116 = test system: HCT-116
OVCAR-8 = test system: OVCAR-8
M14 = test system: M14
T47D = test system: T47D
HCC 2998 = test system: HCC 2998
COLO 205 = test system: COLO 205
SNB-75 = test system: SNB-75
UO-31 = test system: UO-31
MCF7 = test system: MCF7
SK-MEL-5 = test system: SK-MEL-5
IGROV-1 = test system: IGROV-1
NCI-H460 = test system: NCI-H460
HL-60 = test system: HL-60
A498 = test system: A498

SMILES: Nc1ncnc2c1N=C(c1ccccc1)CC(c1ccccc1)N2 (configuration not stated)
- GI50 (OVCAR-4): > 100 µM (inactive)
- GI50 (ACHN): > 100 µM (inactive)
- GI50 (MDA-N): > 100 µM (inactive)
- GI50 (CCRF-CEM): > 100 µM (inactive)
- GI50 (SF-295): > 100 µM (inactive)
- GI50 (U-251): > 100 µM (inactive)
- GI50 (Hs-578T): 39.4 µM (inactive)
- GI50 (NCI/ADR-RES): 59.2 µM (inactive)
- GI50 (DU-145): > 100 µM (inactive)
- GI50 (SF-268): > 100 µM (inactive)
- GI50 (Malme-3M): > 100 µM (inactive)
- GI50 (SNB-19): > 100 µM (inactive)
- GI50 (NCI-H226): > 100 µM (inactive)
- GI50 (SK-MEL-28): > 100 µM (inactive)
- GI50 (OVCAR-5): > 100 µM (inactive)
- GI50 (RXF 393): > 100 µM (inactive)
- GI50 (SW-620): > 100 µM (inactive)
- GI50 (NCI-H522): > 100 µM (inactive)
- GI50 (SR): > 100 µM (inactive)
- GI50 (CAKI-1): > 100 µM (inactive)
- GI50 (HOP-62): 97.5 µM (inactive)
- GI50 (MOLT-4): > 100 µM (inactive)
- GI50 (A549): > 100 µM (inactive)
- GI50 (LOX IMVI): > 100 µM (inactive)
- GI50 (786-0): > 100 µM (inactive)
- GI50 (SF-539): > 100 µM (inactive)
- GI50 (HOP-92): > 100 µM (inactive)
- GI50 (HCT-15): > 100 µM
- GI50 (HT-29): > 100 µM (inactive)
- GI50 (TK-10): > 100 µM (inactive)
- GI50 (SK-MEL-2): > 100 µM (inactive)
- GI50 (EKVX): > 100 µM (inactive)
- GI50 (UACC-62): > 100 µM (inactive)
- GI50 (UACC-257): > 100 µM (inactive)
- GI50 (RPMI-8226): > 100 µM (inactive)
- GI50 (PC-3): > 100 µM (inactive)
- GI50 (MDA-MB-231): > 100 µM (inactive)
- GI50 (MDA-MB-435): > 100 µM (inactive)
- GI50 (SN12C): > 100 µM (inactive)
- GI50 (OVCAR-3): > 100 µM (inactive)
- GI50 (KM12): > 100 µM (inactive)
- GI50 (NCI-H23): > 100 µM (inactive)
- GI50 (K562): > 100 µM (inactive)
- GI50 (BT-549): > 100 µM (inactive)
- GI50 (SK-OV-3): > 100 µM (inactive)
- GI50 (HCT-116): > 100 µM (inactive)
- GI50 (OVCAR-8): > 100 µM (inactive)
- GI50 (M14): > 100 µM (inactive)
- GI50 (T47D): > 100 µM (inactive)
- GI50 (HCC 2998): > 100 µM (inactive)
- GI50 (COLO 205): > 100 µM (inactive)
- GI50 (SNB-75): 23.6 µM (inactive)
- GI50 (UO-31): > 100 µM (inactive)
- GI50 (MCF7): > 100 µM (inactive)

SMILES: COC(=O)C1=C(C(=O)OC)SC2(S1)C(C(=O)OC)=C(C(=O)OC)Sc1c2ssc1=O
- GI50 (OVCAR-4): 1.22 µM (inactive)
- GI50 (SK-MEL-5): 1.21 µM (inactive)
- GI50 (ACHN): 0.927 µM (active)
- GI50 (MDA-N): 1.66 µM (inactive)
- GI50 (CCRF-CEM): 0.076 µM (active)
- GI50 (SF-295): 11.4 µM (inactive)
- GI50 (U-251): 2.12 µM (inactive)
- GI50 (Hs-578T): 5.18 µM (inactive)
- GI50 (NCI/ADR-RES): 1 µM (active)
- GI50 (DU-145): 0.877 µM (active)
- GI50 (SF-268): 2.52 µM (inactive)
- GI50 (Malme-3M): 0.61 µM (active)
- GI50 (SNB-19): 18.5 µM (inactive)
- GI50 (NCI-H226): 1.48 µM (inactive)
- GI50 (SK-MEL-28): 1.46 µM (inactive)
- GI50 (OVCAR-5): 2.11 µM (inactive)
- GI50 (RXF 393): 1.08 µM (active)
- GI50 (SW-620): 0.661 µM (active)
- GI50 (NCI-H522): 0.177 µM (active)
- GI50 (CAKI-1): 1.43 µM (inactive)
- GI50 (HOP-62): 1.83 µM (inactive)
- GI50 (MOLT-4): 0.353 µM (active)
- GI50 (IGROV-1): 1.65 µM (inactive)
- GI50 (A549): 9.66 µM (inactive)
- GI50 (NCI-H460): 2.88 µM (inactive)
- GI50 (LOX IMVI): 0.208 µM (active)
- GI50 (HL-60): 0.016 µM (active)
- GI50 (786-0): 0.456 µM (active)
- GI50 (SF-539): 1.15 µM (inactive)
- GI50 (HOP-92): 0.826 µM (active)
- GI50 (A498): 1.64 µM (inactive)
- GI50 (HCT-15): 0.369 µM
- GI50 (HT-29): 0.585 µM (active)
- GI50 (TK-10): 1.58 µM (inactive)
- GI50 (SK-MEL-2): 1.78 µM (inactive)
- GI50 (EKVX): 2.16 µM (inactive)
- GI50 (UACC-62): 0.526 µM (active)
- GI50 (UACC-257): 1.51 µM (inactive)
- GI50 (RPMI-8226): 0.982 µM (active)
- GI50 (PC-3): 1.43 µM (inactive)
- GI50 (MDA-MB-231): 1.67 µM (inactive)
- GI50 (MDA-MB-435): 1.57 µM (inactive)
- GI50 (SN12C): 1.19 µM (inactive)
- GI50 (OVCAR-3): 0.904 µM (active)
- GI50 (KM12): 4.78 µM (inactive)
- GI50 (NCI-H23): 1.78 µM (inactive)
- GI50 (K562): 0.547 µM (active)
- GI50 (BT-549): 1.5 µM (inactive)
- GI50 (SK-OV-3): 8.97 µM (inactive)
- GI50 (HCT-116): 0.459 µM (active)
- GI50 (OVCAR-8): 1.34 µM (inactive)
- GI50 (M14): 1.12 µM (inactive)
- GI50 (T47D): 1.12 µM (active)
- GI50 (HCC 2998): 1.31 µM (inactive)
- GI50 (COLO 205): 0.524 µM (active)
- GI50 (SNB-75): 4.01 µM (inactive)
- GI50 (UO-31): 1.63 µM (inactive)
- GI50 (MCF7): 1.26 µM (inactive)
